The results in this text go back to patent US7781417B2, “Cyclodextrin dimers and derivatives thereof, methods for preparing them and their use, in particular, for the solubilizing pharmacologically active substances” (Centre National de la Recherche Scientifique, priority 2003, dated 2010).

Where “and” joins values, the source holds several entries; their conditions need not be identical. Identical values can stand only once. Like-named read-outs stand apart in the source and are kept apart here.

In data set [1] the target is mannose-specific lectin concanavalin A (ConA) (Canavalia ensiformis, UniProt P02866). Kind of data set: ELLA (Enzyme-Linked Lectin Assay): inhibition of the combination of yeast mannan and horse-radish peroxidase-labelled ConA. Format: binding. The settings on record: for Relative affinity / Relative molar affinity: relative to Me-α-D-Glcp = 1. How it is done: The affinity of the ureido-, thioureido-, ureidocysteaminyl- and thioureidocysteaminyl-cyclodextrin dimers of the invention which incorporate glucide substituents for specific membrane lectins in vitro is evaluated according to the ELLA (“Enzyme-Linked Lectin Assay”) protocol. Numerous examples of application of this protocol can be found in the article by J. J. Lundquist and E. J. Toon in Chem. Rev. 2002, 102, pp. 555-578. This technique measures the ability of a soluble mono- or oligosaccharide ligand to inhibit the association between a complementary lectin and another reference ligand bound to a plastic support microplate. Thus, the ureido-, thioureido-, ureidocysteaminyl- and thioureidocysteaminyl-cyclodextrin dimers carrying α-D-mannopyranosyl substituents are recognized by concanavalin A or by the mannose-specific lectin of the macrophages, the derivatives with β-lactosyl substituents are recognized by the lactose-specific lectin of Arachys hypogaea or hepatocytes, and the derivatives comprising the tetrasaccharide sialyl-Lewis X substituent are recognized by the selectins of the endothelium involved in the inflammation method.
The affinity of compounds no. 5 to 8 for the mannose-specific lectin concanavalin A (ConA) was evaluated according to the test ELLA protocol. The concentration of compounds no. […] The IC50 values are inversely proportional to the respective affinities.
The microtitration plate cells (Nunc-Immuno™ plates MaxiSorp™) are charged with 100 μl of a yeast mannan stock solution (Sigma, […]) in a saline phosphate buffer solution (PBS; pH 7.3 containing Ca^2+ 0.1 mM and Mn^2+ 0.1 mM) overnight at ambient temperature. The cells are washed (3×300 μl) with a buffer solution containing 0.05% (v/v) Tween 20 (PBTS). This washing protocol is repeated after each incubation during the test. A bovine serum albumin solution (BSA, 1%) in PBS (150 μg/cell) is then added to the cells, followed by incubation for 1 h at 37° C. and then washing.
To determine the optimum lectin concentration for the inhibition studies, 100 μl of a series of Con A solutions labelled with 10^−1 to 10^−5 mg.ml^−1 horse-radish peroxidase in PBS is added to the cells charged with the mannan, followed by treating as indicated above. After incubation at 37° C. for 1 hour, the plates are washed (PBST) and a solution (50 μl) of the diammonium salt of 2,2′-azinobis(3-ethylbenzothiazoline-6-sulphonic) acid (ABTS, 1 mg in 4 ml) in citrate buffer is added (0.2 M; pH 4.0 with 0.015% of oxygenated water). The reaction is stopped after 20 minutes by adding 50 μl/cell sulphuric acid 1 M and the absorbances are measured at 415 nm using an ELISA reader. The sample cells contain the citrate-phosphate buffer. The concentration of lectin marked with peroxidase giving an absorbance value between 0.8 and 1.0 (typically between 10^−2 and 10^−3 mg/ml^−1) was used in the inhibition assays.
For inhibition assays, stock solutions of compounds no. 5 to 8 were used at a concentration of 5 to 7 mg/ml^−1 in PBS. In a series of experiments, ConA marked with horse-radish peroxidase of suitable concentration as indicated above (60 μl/cell) is added to the solutions of each compound (60 μl/cell) in PBS, double-diluted in sequence, in a Nunclon™(Delta) microtitration plate which is incubated at 37° C. for 1 hour. The solutions (100 μl/cell) are then transferred to a microtitration plate charged with mannan and treated as indicated above, then being incubated at 37° C. for 1 hour. The cells are washed (PBST) and ABTS solution added (50 μl/cell). After 20 minutes, the reaction is stopped (sulphuric acid) and the absorbances are measured.
The inhibition percentage is calculated by the formula: […]

The nature of data set [2]: solubility in water of the cyclodextrin (dimer) derivative. Format: physicochemical.
Data set [3] is described as follows: inclusion of Taxotere into the cyclodextrin dimer: solubility of Taxotere in sterile water. Type of data set: physicochemical. The protocol:
Taxotere in the pure state is used to start with and 8.3 mg (9.7 μmol) of this product is dispersed in 1 ml of a solution containing 10 mmol.l^−1 of compound no. 3 in sterile water, then the obtained suspension is stirred at 70° C. until a clear solution is obtained which signals the complexation of the Taxotere.
Taxotere in the pure state is used to start with and 6.6 mg (7.7 μmol) of this product is dispersed in 1 ml of a solution containing 8 mmol/l^−1 of compound no. 6 in sterile water, then the obtained suspension is stirred at 70° C. until a clear solution is obtained which signals the complexation of the Taxotere.
Taxotere in the pure state is used to start with and 5.8 mg ([…]) of this product is dispersed in 1 ml of a solution containing 7 mmol/l^−1 of compound no. 6 in sterile water, then the obtained suspension is stirred at 70° C. until a clear solution is obtained which signals the complexation of the Taxotere.

[4] abbreviates: inhibition of ConA-HRP binding to yeast mannan fixed to microtitration plate, average of three independent experiments, read-out: IC50.

In the case of `CO[C@H]1O[C@H](CO)[C@@H](O)[C@H](O)[C@H]1O` [Me-α-D-Glcp, methyl-α-D-glucopyranoside, reference compound], in data set [1], the IC50 (commonly the point on the concentration scale where inhibition reaches its midpoint) was found to be 865 µM, the Relative affinity was found to be 1 and the Relative molar affinity was 1.
As for `OC[C@H]1O[C@@H]2O[C@H]3[C@H](O)[C@@H](O)[C@@H](O[C@H]4[C@H](O)[C@@H](O)[C@@H](O[C@H]5[C@H](O)[C@@H](O)[C@@H](O[C@H]6[C@H](O)[C@@H](O)[C@@H](O[C@H]7[C@H](O)[C@@H](O)[C@@H](O[C@H]8[C@H](O)[C@@H](O)[C@@H](O[C@H]1[C@H](O)[C@H]2O)O[C@@H]8CO)O[C@@H]7CO)O[C@@H]6CO)O[C@@H]5CNC(=S)NCCN(CCNC(=S)NC[C@H]1O[C@@H]2O[C@H]5[C@H](O)[C@@H](O)[C@@H](O[C@H]6[C@H](O)[C@@H](O)[C@@H](O[C@H]7[C@H](O)[C@@H](O)[C@@H](O[C@H]8[C@H](O)[C@@H](O)[C@@H](O[C@H]9[C@H](O)[C@@H](O)[C@@H](O[C@H]%10[C@H](O)[C@@H](O)[C@@H](O[C@H]1[C@H](O)[C@H]2O)O[C@@H]%10CO)O[C@@H]9CO)O[C@@H]8CO)O[C@@H]7CO)O[C@@H]6CO)O[C@@H]5CO)CCNC(=S)Nc1ccccc1)O[C@@H]4CO)O[C@@H]3CO` [compound no. 4, bis[2-[N′-(6^I-deoxycyclomaltoheptaos-6^I-yl)thioureido]ethyl] 2-(N′-phenylthioureido)ethylamine], the solubility in water in data set [2] is 115 g·L^−1 and 62 mmol·L^−1.
As to “bis[2-[N′-(6^I-deoxycyclomaltoheptaos-6^I-yl)thioureido]ethyl] 2- [N′-(α-D-mannopyranosyl)thioureido]ethylamine [compound no. 5]”, the IC50 in data set [1] (setting [4]) stood at 1290 µM. For the same molecule, in data set [1], the Relative affinity is 0.67 and the Relative molar affinity was 0.67.
Consider “bis[2-[N′-(6^I-deoxycyclomaltoheptaos-6^I-yl)thioureido]ethyl] 2-(N′-methylthioureido)ethylamine [compound no. 3]”, for which the “solubility of the Taxotere in a solution of the compound” value in data set [3] (10 mmol.l^−1 of compound in sterile water, stirred at 70° C. until clear) amounted to 8300 µg/mL. Moreover, the “stability of the Taxotere complex in solution once formed” value in data set [3] (ambient temperature, after complexation at 70° C.) was “remains in solution at ambient temperature”.
Take “bis[2-[N′-(6^I-deoxycyclomaltoheptaos-6^I-yl)thioureido]ethyl] 2-[N′-[2-[bis[2-[N′-(α-D-mannopyranosyl)thioureido]ethyl] amino]ethyl]thioureido]ethyl amine [compound no. 7]”: the IC50 in data set [1] (setting [4]) turned out to be 265 µM. Moreover, in data set [1], the Relative affinity came to 3.3 and the Relative molar affinity is listed as 1.1.
For the molecule “bis[2-[N′-(6^I-deoxycyclomaltoheptaos-6^I-yl)thioureido]ethyl] 2-[N′-[2-[bis[2-[N′-[tris(α-D-mannopyranosyloxymethyl) methyl]thioureido]ethyl] amino]ethyl]thioureido]ethylamine [compound no. 8]”, the IC50 in data set [1] (setting [4]) was found to be 49 µM. Also, in data set [1], the Relative affinity was 17.7 and the Relative molar affinity is on record as 2.9. In data set [1] (versus compound no. 5), the “times more effectively recognized by ConA compared with the monovalent cyclodextrin dimer derivative, compound no. 5” value is “up to 25 times”.
Take “bis[2-[N′-(6^I-deoxycyclomaltoheptaos-6^I-yl)thioureido]ethyl] 2-[N′-[tris(2,3,4,6-tetra-O-acetyl-α-D-mannopyranosyloxy-methyl)methyl]thioureido]lethylamine [compound no. 6]”: the “stability of the Taxotere complex in solution once formed” value in data set [3] is on record as “remains in solution at ambient temperature”. In addition, in data set [1] (setting [4]), the IC50 stood at 1130 µM. Moreover, in data set [1], the Relative affinity came to 0.76 and the Relative molar affinity is reported as 0.38.
